The test deals with human PAD4 (hPAD4) (Homo sapiens, UniProt Q9UM07). Kind of test: RFMS human PAD4 functional assay (rapid-fire mass spectrum). The class given is biochemical. As to conditions: 5 nM hPAD4 enzyme, 250 μM BAEE, 50 μM Calcium; 30 min preincubation, 90 min reaction at 37° C. The method in brief:
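PAD4 (10 nM) preincubated 30 min with compound (top final 50 μM), then BAEE substrate added in pH 7.5 HEPES buffer with DTT, 50 μM calcium, TPEN; 90 min at 37° C. After TCA quench, citrulline derivatized with phenyl glyoxal (4 mM final, 30 min, 37° C) and quantified by RapidFire MS against internal standard.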

Chain of human PAD4 (hPAD4) (Q9UM07 whole entry): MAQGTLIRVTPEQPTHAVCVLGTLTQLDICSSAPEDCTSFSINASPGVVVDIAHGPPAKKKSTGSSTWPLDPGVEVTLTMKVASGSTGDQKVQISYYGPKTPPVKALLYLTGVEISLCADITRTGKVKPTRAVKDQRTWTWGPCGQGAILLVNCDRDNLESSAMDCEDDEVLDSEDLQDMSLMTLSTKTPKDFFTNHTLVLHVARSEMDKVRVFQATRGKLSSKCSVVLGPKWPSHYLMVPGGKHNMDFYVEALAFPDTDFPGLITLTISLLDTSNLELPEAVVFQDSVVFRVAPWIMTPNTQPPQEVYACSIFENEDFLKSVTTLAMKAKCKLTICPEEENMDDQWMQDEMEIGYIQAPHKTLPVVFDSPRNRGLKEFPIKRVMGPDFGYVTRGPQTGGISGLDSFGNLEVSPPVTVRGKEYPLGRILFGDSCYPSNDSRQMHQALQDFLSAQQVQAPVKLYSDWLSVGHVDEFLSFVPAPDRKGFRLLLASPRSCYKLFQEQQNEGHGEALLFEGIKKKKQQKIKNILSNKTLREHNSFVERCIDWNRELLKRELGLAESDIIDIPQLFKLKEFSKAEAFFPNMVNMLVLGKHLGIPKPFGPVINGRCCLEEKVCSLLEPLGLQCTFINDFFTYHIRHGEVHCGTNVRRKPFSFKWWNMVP

Usually IC50 stands for the concentration that gives 50% inhibition. In the case of `COc1cc(C(=O)N2C[C@H]3CC[C@@H]2[C@@H]3N)cc2nc(-c3cc4cccnc4n3CC3CC3)n(C3CN(S(=O)(=O)c4ccccc4)C3)c12` [Example 329, (1R,4R,7R)-2-{1-[1-(benzenesulfonyl)azetidin-3-yl]-2-[1-(cyclopropylmethyl)-1H-pyrrolo[2,3-b]pyridin-2-yl]-7-methoxy-1H-1,3-benzodiazole-5-carbonyl}-2-azabicyclo[2.2.1]heptan-7-amine], the IC50 was found to be 163 nM.

For `COc1cc(C(=O)N2C[C@H]3CC[C@@H]2[C@@H]3N)cc2nc(-c3cc4cccnc4n3CC3CC3)n(CC3CCN(C(=O)c4ccnc(C)n4)CC3)c12` [Example 199, (1R,4R,7R)-2-{2-[1-(cyclopropylmethyl)-1H-pyrrolo[2,3-b]pyridin-2-yl]-7-methoxy-1-{[1-(2-methylpyrimidine-4-carbonyl)piperidin-4-yl]methyl}-1H-1,3-benzodiazole-5-carbonyl}-2-azabicyclo[2.2.1]heptan-7-amine], the IC50 came to 162 nM.

Consider `COc1ccc2cc(-c3nc4cc(C(=O)N5C[C@H]6CC[C@@H]5[C@@H]6N)cc(OC)c4n3CC3CN(c4cccnc4C#N)C3)n(CC3CC3)c2n1` [Example 35, 3-[3-({5-[(1R,4R,7R)-7-amino-2-azabicyclo[2.2.1]heptane-2-carbonyl]-2-[1-(cyclopropylmethyl)-6-methoxy-1H-pyrrolo[2,3-b]pyridin-2-yl]-7-methoxy-1H-1,3-benzodiazol-1-yl}methyl)azetidin-1-yl]pyridine-2-carbonitrile], for which the IC50 came to 90 nM.

Regarding `COc1cc(C(=O)N2C[C@H]3CC[C@@H]2[C@@H]3N)cc2nc(-c3cc4cccnc4n3CC3CC3)n(Cc3cnn(C)c3)c12` [Example 243, (1R,4R,7R)-2-{2-[1-(cyclopropylmethyl)-1H-pyrrolo[2,3-b]pyridin-2-yl]-7-methoxy-1-[(1-methyl-1H-pyrazol-4-yl)methyl]-1H-1,3-benzodiazole-5-carbonyl}-2-azabicyclo[2.2.1]heptan-7-amine], the half-maximal inhibitory concentration (IC50) was found to be 33 nM.

In the case of `COc1cc(C(=O)N2C[C@H]3CC[C@@H]2[C@@H]3N)cc2nc(-c3cc4cccnc4n3CC3CC3)n(C3CN(c4cnc(C#N)nc4)C3)c12` [Example 82, 5-(3-{5-[(1R,4R,7R)-7-amino-2-azabicyclo[2.2.1]heptane-2-carbonyl]-2-[1-(cyclopropylmethyl)-1H-pyrrolo[2,3-b]pyridin-2-yl]-7-methoxy-1H-1,3-benzodiazol-1-yl}azetidin-1-yl)pyrimidine-2-carbonitrile], the IC50 came out at 424 nM.

For `COc1cc(C(=O)N2CC3CCC2[C@@H]3N)cc2nc(-c3cc4cccnc4n3CC3CC3)n(Cc3cnn(-c4cncnc4)c3)c12` (stereo partly drawn) [Example 408, (7R)-2-{2-[1-(cyclopropylmethyl)-1H-pyrrolo[2,3-b]pyridin-2-yl]-7-methoxy-1-{[1-(pyrimidin-5-yl)-1H-pyrazol-4-yl]methyl}-1H-1,3-benzodiazole-5-carbonyl}-2-azabicyclo[2.2.1]heptan-7-amine], the IC50 was found to be 74 nM.

`COc1cc(C(=O)N2C[C@H]3CC[C@@H]2[C@@H]3N)cc2nc(-c3cc4cccnc4n3CC3CC3)n(CC3CN(C(=O)CNC(C)=O)C3)c12` [Example 186, N-{2-[3-({5-[(1R,4R,7R)-7-amino-2-azabicyclo[2.2.1]heptane-2-carbonyl]-2-[1-(cyclopropylmethyl)-1H-pyrrolo[2,3-b]pyridin-2-yl]-7-methoxy-1H-1,3-benzodiazol-1-yl}methyl)azetidin-1-yl]-2-oxoethyl}acetamide]: the IC50 came out at 316 nM.

With `COc1cc(C(=O)N2CC3CCC2[C@@H]3N)cc2nc(-c3cc4ccccc4n3CC3CC3)n(CC3CC(=O)N(C)C3)c12` (stereo partly drawn) [Example 474, 4-({5-[(7R)-7-amino-2-azabicyclo[2.2.1]heptane-2-carbonyl]-2-[1-(cyclopropylmethyl)-1H-indol-2-yl]-7-methoxy-1H-1,3-benzodiazol-1-yl}methyl)-1-methylpyrrolidin-2-one], the IC50 is 149 nM.

Consider `COc1cc(C(=O)N2C[C@H]3CC[C@@H]2[C@@H]3N)cc2nc(-c3cc4cccnc4n3CC3CC3)n(CC3CN(c4cnccn4)C3)c12` [Example 74, (1R,4R,7R)-2-{2-[1-(cyclopropylmethyl)-1H-pyrrolo[2,3-b]pyridin-2-yl]-7-methoxy-1-{[1-(pyrazin-2-yl)azetidin-3-yl]methyl}-1H-1,3-benzodiazole-5-carbonyl}-2-azabicyclo[2.2.1]heptan-7-amine], for which the IC50 came out at 210 nM.

For the compound `COc1cc(C(=O)N2C[C@H]3CC[C@@H]2[C@@H]3N)cc2nc(-c3cc4ccccc4n3CC3CC3)n(CC3CN(C(=O)c4ccc(Cl)cc4)C3)c12` [Example 166, (1R,4R,7R)-2-(1-{[1-(4-chlorobenzoyl)azetidin-3-yl]methyl}-2-[1-(cyclopropylmethyl)-1H-indol-2-yl]-7-methoxy-1H-1,3-benzodiazole-5-carbonyl)-2-azabicyclo[2.2.1]heptan-7-amine], the IC50 stood at 31 nM.

For the compound `COc1cc(C(=O)N2CC3CCC2[C@@H]3N)cc2nc(-c3cc4ccccc4n3CC3CC3)n(Cc3cnn(C)n3)c12` (stereo partly drawn) [Example 505, (7R)-2-{2-[1-(cyclopropylmethyl)-1H-indol-2-yl]-7-methoxy-1-[(2-methyl-2H-1,2,3-triazol-4-yl)methyl]-1H-1,3-benzodiazole-5-carbonyl}-2-azabicyclo[2.2.1]heptan-7-amine], the IC50 turned out to be 163 nM.

In the case of `COc1cc(C(=O)N2C[C@H](N)C[C@@H](F)C2)cc2nc(-c3cc4cccnc4n3CC3CC3)n(Cc3cnn(-c4cncc(F)c4)c3)c12` [Example 406, (3R,5R)-1-{2-[1-(cyclopropylmethyl)-1H-pyrrolo[2,3-b]pyridin-2-yl]-1-{[1-(5-fluoropyridin-3-yl)-1H-pyrazol-4-yl]methyl}-7-methoxy-1H-1,3-benzodiazole-5-carbonyl}-5-fluoropiperidin-3-amine], the IC50 is 69 nM.

`COc1cc(C(=O)N2CC3CCC2[C@@H]3N)cc2nc(-c3cc4ccccc4n3CC3CC3)n(Cc3cnn(-c4ccncc4)c3)c12` (stereo partly drawn) [Example 362]: the IC50 was 25 nM.

On to `COc1cc(C(=O)N2CC3CCC2[C@@H]3N)cc2nc(-c3cc4cccnc4n3CC3CC3)n(Cc3cnn(-c4cccc(C(F)(F)F)n4)c3)c12` (stereo partly drawn) [Example 356, (7R)-2-{2-[1-(cyclopropylmethyl)-1H-pyrrolo[2,3-b]pyridin-2-yl]-7-methoxy-1-({1-[6-(trifluoromethyl)pyridin-2-yl]-1H-pyrazol-4-yl}methyl)-1H-1,3-benzodiazole-5-carbonyl)-2-azabicyclo[2.2.1]heptan-7-amine], for which the IC50 turned out to be 23 nM.

For `COc1cc(C(=O)N2C[C@H]3CC[C@@H]2[C@@H]3N)cc2nc(-c3cc4cccnc4n3CC3CC3)n(CC3CN(C(=O)C4CCC4)C3)c12` [Example 114, (1R,4R,7R)-2-{1-[(1-cyclobutanecarbonylazetidin-3-yl)methyl]-2-[1-(cyclopropylmethyl)-1H-pyrrolo[2,3-b]pyridin-2-yl]-7-methoxy-1H-1,3-benzodiazole-5-carbonyl}-2-azabicyclo[2.2.1]heptan-7-amine], the 50% inhibitory concentration (IC50) amounted to 54 nM.

In the case of `COc1cc(C(=O)N2CC3CCC2[C@@H]3N)cc2nc(-c3cc4ccccc4n3CC3CC3)n(CC3CN(C(=O)c4cccs4)C3)c12` (stereo partly drawn) [Example 457, (7R)-2-{2-[1-(cyclopropylmethyl)-1H-indol-2-yl]-7-methoxy-1-{[1-(thiophene-2-carbonyl)azetidin-3-yl]methyl}-1H-1,3-benzodiazole-5-carbonyl}-2-azabicyclo[2.2.1]heptan-7-amine], the IC50 was determined as 63 nM.

Take `COc1cc(C(=O)N2C[C@H]3CC[C@@H]2[C@@H]3N)cc2nc(-c3cc4cccnc4n3CC3CC3)n(C3CN(c4ccnc(C)n4)C3)c12` [Example 77, (1R,4R,7R)-2-{2-[1-(cyclopropylmethyl)-1H-pyrrolo[2,3-b]pyridin-2-yl]-7-methoxy-1-[1-(2-methylpyrimidin-4-yl)azetidin-3-yl]-1H-1,3-benzodiazole-5-carbonyl}-2-azabicyclo[2.2.1]heptan-7-amine]: the IC50 was found to be 307 nM.

Consider `COC(=O)c1cc(C(=O)N2CC(Cn3c(-c4cc5cccnc5n4CC4CC4)nc4cc(C(=O)N5C[C@H]6CC[C@@H]5[C@@H]6N)cc(OC)c43)C2)ccn1` [Example 129, methyl 4-[3-({5-[(1R,4R,7R)-7-amino-2-azabicyclo[2.2.1]heptane-2-carbonyl]-2-[1-(cyclopropylmethyl)-1H-pyrrolo[2,3-b]pyridin-2-yl]-7-methoxy-1H-1,3-benzodiazol-1-yl}methyl)azetidine-1-carbonyl]pyridine-2-carboxylate], for which the IC50 stood at 116 nM.

As to `COc1cc(C(=O)N2C[C@H]3CC[C@@H]2[C@@H]3N)cc2nc(-c3cc4ccccc4n3CC3CC3)n(CC3CN(C(=O)c4ccc(O)cc4F)C3)c12` [Example 147, 4-[3-({5-[(1R,4R,7R)-7-amino-2-azabicyclo[2.2.1]heptane-2-carbonyl]-2-[1-(cyclopropylmethyl)-1H-indol-2-yl]-7-methoxy-1H-1,3-benzodiazol-1-yl}methyl)azetidine-1-carbonyl]-3-fluorophenol], the half-maximal inhibitory concentration (IC50) turned out to be 19 nM.

Take `COc1cc(C(=O)N2C[C@H](N)C[C@@H](F)C2)cc2nc(-c3cc4cccnc4n3CC3CC3)n(Cc3cn(C)nc3C)c12` [Example 507, (3R,5R)-1-{2-[1-(cyclopropylmethyl)-1H-pyrrolo[2,3-b]pyridin-2-yl]-1-[(1,3-dimethyl-1H-pyrazol-4-yl)methyl]-7-methoxy-1H-1,3-benzodiazole-5-carbonyl}-5-fluoropiperidin-3-amine]: the IC50 was 256 nM.

As for `COc1cc(C(=O)N2C[C@H]3CC[C@@H]2[C@@H]3N)cc2nc(-c3cc4ccccc4n3CC3CC3)n(CC3CN(C(=O)c4cccc(C(=O)O)c4)C3)c12` [Example 137, 3-[3-({5-[(1R,4R,7R)-7-amino-2-azabicyclo[2.2.1]heptane-2-carbonyl]-2-[1-(cyclopropylmethyl)-1H-indol-2-yl]-7-methoxy-1H-1,3-benzodiazol-1-yl}methyl)azetidine-1-carbonyl]benzoic acid], the IC50 came out at 11 nM.

These data come from patent US12692254B2, “Benzimidazole inhibitors of PAD enzymes” (BRISTOL-MYERS SQUIBB COMPANY, priority 2018, dated 2026).
